Measurements taken from ChEMBL document CHEMBL5223180, “Design, Synthesis, and Bioevaluation of Pyrido[2,3-d]pyrimidin-7-ones as Potent SOS1 Inhibitors” (ACS Med Chem Lett, 2023).

Tests used:
[1] = molecular target: T1, Son of sevenless homolog 1 (Homo sapiens, UniProt Q07889); assay: Inhibition of 6His-tagged SOS1 (unknown origin) mediated GST-tagged KRAS G12D activation preincubated for 15 mins followed by KRAS G12D addition and measured after 30 mins by HTRF assay
T1 sequence (Q07889 whole entry): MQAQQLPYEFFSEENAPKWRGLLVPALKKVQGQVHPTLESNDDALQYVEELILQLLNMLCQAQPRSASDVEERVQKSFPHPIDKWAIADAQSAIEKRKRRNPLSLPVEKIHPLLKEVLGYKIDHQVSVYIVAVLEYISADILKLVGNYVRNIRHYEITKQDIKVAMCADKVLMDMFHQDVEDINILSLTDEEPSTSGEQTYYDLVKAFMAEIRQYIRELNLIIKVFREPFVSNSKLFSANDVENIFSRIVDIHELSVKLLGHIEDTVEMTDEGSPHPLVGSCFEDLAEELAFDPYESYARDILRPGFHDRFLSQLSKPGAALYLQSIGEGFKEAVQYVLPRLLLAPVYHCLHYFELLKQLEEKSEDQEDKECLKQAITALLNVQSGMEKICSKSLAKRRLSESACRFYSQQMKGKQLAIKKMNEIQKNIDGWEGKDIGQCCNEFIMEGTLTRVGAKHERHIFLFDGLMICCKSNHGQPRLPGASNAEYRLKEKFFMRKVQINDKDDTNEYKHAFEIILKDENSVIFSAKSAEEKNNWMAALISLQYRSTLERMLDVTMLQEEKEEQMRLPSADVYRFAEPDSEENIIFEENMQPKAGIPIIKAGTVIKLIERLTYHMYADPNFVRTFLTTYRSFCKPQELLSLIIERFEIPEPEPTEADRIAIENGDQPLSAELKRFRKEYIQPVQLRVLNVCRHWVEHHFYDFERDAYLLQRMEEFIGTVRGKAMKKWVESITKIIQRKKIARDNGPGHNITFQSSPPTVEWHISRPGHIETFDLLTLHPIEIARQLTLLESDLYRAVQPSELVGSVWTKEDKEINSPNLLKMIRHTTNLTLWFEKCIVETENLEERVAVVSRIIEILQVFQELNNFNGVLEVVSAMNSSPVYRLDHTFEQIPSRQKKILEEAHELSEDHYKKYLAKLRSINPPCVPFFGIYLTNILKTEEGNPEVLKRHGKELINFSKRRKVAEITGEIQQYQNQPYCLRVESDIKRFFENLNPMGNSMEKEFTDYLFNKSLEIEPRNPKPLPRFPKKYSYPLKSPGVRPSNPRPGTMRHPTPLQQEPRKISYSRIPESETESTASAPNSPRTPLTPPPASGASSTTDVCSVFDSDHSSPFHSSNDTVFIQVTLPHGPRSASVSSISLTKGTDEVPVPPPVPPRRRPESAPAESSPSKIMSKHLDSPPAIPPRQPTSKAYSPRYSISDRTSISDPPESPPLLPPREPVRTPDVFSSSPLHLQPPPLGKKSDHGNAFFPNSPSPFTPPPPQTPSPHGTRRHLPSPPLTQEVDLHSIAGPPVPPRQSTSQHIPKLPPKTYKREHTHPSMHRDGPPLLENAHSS

[2] = test system: GTPase KRas (Homo sapiens), P01116 [G12D]; details: dose 10.0 µM
Sequence of GTPase KRas (Homo sapiens), P01116 [G12D] (P01116 whole entry G12D, looked up): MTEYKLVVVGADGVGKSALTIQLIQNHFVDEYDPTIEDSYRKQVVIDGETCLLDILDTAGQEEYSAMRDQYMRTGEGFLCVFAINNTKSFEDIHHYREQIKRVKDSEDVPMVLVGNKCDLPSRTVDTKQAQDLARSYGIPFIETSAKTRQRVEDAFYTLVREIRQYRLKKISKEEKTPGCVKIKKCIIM

MIA PaCa-2 = assay: cells; details: Homo sapiens, MIA PaCa-2, 168 h
[3] = molecular target: Epidermal growth factor receptor (Homo sapiens, UniProt P00533); assay: Inhibition of EGFR (unknown origin)
Sequence of Epidermal growth factor receptor (P00533 whole entry): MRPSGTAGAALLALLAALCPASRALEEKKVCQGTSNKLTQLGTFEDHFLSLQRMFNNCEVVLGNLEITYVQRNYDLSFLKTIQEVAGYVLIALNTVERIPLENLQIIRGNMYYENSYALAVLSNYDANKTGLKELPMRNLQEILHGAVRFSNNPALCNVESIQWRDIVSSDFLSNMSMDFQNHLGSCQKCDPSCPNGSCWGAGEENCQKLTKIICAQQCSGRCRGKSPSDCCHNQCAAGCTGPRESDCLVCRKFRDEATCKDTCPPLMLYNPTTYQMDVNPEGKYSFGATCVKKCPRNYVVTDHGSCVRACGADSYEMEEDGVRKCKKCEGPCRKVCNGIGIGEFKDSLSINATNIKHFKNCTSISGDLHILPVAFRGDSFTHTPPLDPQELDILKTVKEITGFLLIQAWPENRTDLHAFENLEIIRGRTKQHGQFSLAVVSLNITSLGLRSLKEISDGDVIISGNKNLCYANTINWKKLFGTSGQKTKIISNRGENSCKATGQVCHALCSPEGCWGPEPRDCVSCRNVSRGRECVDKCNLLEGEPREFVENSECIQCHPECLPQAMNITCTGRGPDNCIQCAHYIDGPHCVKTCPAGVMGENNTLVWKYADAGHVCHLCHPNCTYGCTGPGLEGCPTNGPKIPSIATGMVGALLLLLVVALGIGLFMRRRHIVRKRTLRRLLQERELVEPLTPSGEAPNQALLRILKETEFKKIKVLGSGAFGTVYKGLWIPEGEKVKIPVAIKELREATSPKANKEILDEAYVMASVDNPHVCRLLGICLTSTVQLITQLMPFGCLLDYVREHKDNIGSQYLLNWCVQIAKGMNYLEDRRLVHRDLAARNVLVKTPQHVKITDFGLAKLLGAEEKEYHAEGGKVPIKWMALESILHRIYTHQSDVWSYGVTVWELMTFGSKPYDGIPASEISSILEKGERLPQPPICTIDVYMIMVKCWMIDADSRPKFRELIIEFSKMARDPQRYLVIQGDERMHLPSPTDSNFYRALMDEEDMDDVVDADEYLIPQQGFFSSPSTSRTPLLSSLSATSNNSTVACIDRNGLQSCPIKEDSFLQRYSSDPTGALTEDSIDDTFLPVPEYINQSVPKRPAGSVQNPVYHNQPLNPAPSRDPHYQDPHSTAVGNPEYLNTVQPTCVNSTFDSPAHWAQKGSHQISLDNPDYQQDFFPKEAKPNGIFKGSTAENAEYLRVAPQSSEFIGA

[4] = molecular target: Cyclin-dependent kinase 4 (Homo sapiens, UniProt P11802); assay: Inhibition of CDK4 (unknown origin)
Sequence of Cyclin-dependent kinase 4 (P11802 whole entry): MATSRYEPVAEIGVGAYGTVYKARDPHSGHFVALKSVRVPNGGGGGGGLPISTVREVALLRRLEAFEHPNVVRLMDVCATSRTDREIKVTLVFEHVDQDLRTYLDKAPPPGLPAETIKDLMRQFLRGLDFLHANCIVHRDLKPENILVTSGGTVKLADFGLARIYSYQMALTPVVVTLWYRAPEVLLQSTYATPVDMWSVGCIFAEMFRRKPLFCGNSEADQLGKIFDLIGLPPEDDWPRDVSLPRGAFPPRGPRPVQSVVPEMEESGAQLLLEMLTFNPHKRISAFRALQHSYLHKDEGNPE

[5] = molecular target: Platelet-derived growth factor receptor alpha (Homo sapiens, UniProt P16234); assay: Inhibition of PDGFRalpha (unknown origin)
Sequence of Platelet-derived growth factor receptor alpha (P16234 whole entry): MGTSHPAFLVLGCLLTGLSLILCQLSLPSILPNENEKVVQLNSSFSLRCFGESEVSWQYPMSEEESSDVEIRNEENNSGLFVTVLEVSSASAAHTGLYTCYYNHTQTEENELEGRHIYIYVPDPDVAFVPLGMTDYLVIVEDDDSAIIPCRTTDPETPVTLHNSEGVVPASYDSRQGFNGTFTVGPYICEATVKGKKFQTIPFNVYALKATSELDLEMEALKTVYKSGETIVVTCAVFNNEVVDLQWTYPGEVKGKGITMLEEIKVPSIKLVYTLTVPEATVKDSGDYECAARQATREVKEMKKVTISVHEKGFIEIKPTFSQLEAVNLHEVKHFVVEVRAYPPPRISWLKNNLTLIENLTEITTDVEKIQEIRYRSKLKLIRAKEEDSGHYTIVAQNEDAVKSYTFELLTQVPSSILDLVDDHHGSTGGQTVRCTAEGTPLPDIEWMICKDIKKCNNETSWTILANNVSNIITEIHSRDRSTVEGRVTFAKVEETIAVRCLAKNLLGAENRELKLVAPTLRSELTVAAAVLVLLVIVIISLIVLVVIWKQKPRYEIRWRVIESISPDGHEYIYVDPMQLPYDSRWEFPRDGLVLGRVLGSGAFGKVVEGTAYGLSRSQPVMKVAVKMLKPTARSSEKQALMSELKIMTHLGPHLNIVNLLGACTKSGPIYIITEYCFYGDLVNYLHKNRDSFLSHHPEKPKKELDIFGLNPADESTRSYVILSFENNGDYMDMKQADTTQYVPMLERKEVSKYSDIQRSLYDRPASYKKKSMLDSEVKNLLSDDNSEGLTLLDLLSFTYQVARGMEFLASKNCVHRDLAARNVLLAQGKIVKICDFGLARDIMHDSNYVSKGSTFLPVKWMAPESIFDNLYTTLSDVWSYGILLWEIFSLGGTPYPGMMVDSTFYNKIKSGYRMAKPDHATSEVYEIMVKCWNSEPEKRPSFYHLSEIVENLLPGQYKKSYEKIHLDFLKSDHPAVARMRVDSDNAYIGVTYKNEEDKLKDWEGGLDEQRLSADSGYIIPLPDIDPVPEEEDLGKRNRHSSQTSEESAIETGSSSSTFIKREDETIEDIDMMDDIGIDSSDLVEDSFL

[6] = molecular target: Receptor tyrosine-protein kinase erbB-2 (Homo sapiens, UniProt P04626); assay: Inhibition of HER2 (unknown origin)
Sequence of Receptor tyrosine-protein kinase erbB-2 (P04626 whole entry): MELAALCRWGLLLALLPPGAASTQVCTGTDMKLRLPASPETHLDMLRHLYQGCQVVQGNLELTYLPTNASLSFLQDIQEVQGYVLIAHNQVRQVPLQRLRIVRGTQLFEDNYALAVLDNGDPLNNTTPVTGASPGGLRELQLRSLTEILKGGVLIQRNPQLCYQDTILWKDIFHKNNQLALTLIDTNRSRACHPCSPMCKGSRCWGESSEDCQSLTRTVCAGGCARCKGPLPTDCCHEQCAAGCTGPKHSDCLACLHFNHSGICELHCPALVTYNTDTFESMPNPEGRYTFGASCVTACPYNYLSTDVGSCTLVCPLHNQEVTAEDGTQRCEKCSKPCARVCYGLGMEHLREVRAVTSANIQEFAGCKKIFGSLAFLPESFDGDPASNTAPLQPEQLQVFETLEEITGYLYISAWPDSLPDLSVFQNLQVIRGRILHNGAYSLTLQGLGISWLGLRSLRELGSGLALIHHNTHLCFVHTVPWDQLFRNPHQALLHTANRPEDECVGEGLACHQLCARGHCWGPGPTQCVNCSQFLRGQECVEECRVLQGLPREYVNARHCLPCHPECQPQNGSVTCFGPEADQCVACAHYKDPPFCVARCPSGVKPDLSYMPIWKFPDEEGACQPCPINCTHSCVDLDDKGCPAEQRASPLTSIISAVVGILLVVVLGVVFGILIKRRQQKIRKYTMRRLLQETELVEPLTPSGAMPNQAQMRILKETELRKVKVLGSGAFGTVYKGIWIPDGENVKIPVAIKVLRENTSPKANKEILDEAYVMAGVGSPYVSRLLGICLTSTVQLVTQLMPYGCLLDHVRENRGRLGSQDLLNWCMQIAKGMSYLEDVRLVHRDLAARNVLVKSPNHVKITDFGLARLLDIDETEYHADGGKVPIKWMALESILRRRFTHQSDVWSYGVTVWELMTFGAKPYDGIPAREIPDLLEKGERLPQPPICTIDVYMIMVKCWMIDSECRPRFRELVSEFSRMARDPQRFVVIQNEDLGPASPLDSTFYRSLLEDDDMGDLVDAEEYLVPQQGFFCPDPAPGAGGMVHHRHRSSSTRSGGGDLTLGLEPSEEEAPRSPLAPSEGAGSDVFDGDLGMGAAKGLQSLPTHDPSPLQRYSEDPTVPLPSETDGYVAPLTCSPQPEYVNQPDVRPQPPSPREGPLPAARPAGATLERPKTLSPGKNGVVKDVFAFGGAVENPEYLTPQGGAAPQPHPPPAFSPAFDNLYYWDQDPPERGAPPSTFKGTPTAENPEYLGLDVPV

[7] = molecular target: Fibroblast growth factor receptor 1 (Homo sapiens, UniProt P11362); assay: Inhibition of FGFR1 (unknown origin)
Sequence of Fibroblast growth factor receptor 1 (P11362 whole entry): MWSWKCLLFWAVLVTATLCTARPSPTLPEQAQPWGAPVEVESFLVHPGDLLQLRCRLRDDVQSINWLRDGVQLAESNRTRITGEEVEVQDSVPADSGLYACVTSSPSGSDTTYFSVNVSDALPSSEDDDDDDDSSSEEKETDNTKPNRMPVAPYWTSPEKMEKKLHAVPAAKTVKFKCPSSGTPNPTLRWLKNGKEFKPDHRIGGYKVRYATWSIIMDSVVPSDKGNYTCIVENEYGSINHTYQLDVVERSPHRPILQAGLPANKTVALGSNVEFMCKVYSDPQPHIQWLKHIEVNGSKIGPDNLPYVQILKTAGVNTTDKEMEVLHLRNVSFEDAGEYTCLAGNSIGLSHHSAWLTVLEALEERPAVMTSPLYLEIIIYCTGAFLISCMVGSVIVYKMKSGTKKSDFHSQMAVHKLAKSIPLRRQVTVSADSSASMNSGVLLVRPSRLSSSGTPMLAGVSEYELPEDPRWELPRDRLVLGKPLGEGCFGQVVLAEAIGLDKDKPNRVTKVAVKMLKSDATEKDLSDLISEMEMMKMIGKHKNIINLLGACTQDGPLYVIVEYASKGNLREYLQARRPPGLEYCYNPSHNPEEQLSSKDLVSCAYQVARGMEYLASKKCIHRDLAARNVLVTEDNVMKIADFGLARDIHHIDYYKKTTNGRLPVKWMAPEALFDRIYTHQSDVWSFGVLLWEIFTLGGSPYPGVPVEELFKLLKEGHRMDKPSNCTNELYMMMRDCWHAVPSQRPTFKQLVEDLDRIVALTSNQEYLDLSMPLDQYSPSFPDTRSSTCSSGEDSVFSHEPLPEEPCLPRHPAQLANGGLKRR

[8] = molecular target: Cyclin-dependent kinase 2 (Homo sapiens, UniProt P24941); assay: Inhibition of CDK2 (unknown origin)

CC(=O)Nc1cc2c(N[C@H](C)c3cc(N)cc(C(F)(F)F)c3)ncnc2n(C)c1=O
IC50 [1]: > 5 µM

C[C@@H](Nc1ncnc2c1ccc(=O)n2C)c1cc(N)cc(C(F)(F)F)c1
IC50 [1]: > 5 µM

C[C@@H](Nc1ncnc2c1cc(N)c(=O)n2C)c1cc(N)cc(C(F)(F)F)c1
IC50 [1]: > 5 µM

CC(=O)N1CCC(c2cc3c(Nc4cccc(C(F)(F)F)c4)ncnc3n(C)c2=O)CC1
IC50 [1]: > 5 µM

COc1cc2nc(C)nc(N[C@H](C)c3cc(N)cc(C(F)(F)F)c3)c2cc1O[C@H]1CCOC1
ΔTm [2]: 0 °C
IC50 (MIA PaCa-2): 0.03 µM

C[C@@H](Nc1ncnc2c1cc(NC1CCCCC1)c(=O)n2C)c1cc(N)cc(C(F)(F)F)c1
IC50 [1]: > 5 µM

CC(=O)N1CCC(c2cc3c(N[C@H](C)c4cc(N)cc(C(F)(F)F)c4)nc(C)nc3n(C)c2=O)CC1
IC50 [3]: > 10 µM
IC50 [4]: > 10 µM
IC50 [5]: > 10 µM
IC50 [6]: > 10 µM
IC50 [7]: > 10 µM
IC50 [8]: > 10 µM
